Read-outs that look alike come from different tables or passages of the source.
Assays:
[1] = tested on: rabbit corpus cavernosum smooth muscle; test: Inhibition of smooth muscle contraction, rabbit corpus cavernosum in organ bath; parameters: species or system New Zealand White Rabbits; details: Oryctolagus cuniculus, pre-contracted with phenylephrine (10 μM)
Procedure: (§1) New Zealand White Rabbits (2.0-2.5 kg) were killed by cervical dislocation, cavernosal tissue (corpus canvernosus) and aorta excised.
(§2) The tissue was mounted in organ baths for recording of isometric tension, according to the method described by Khan MA et al (BJU Int. 1999 84(6):720-4). Tissues were pre-contracted with phenylephrine (10 μM) and relaxation responses to carbachol assessed in the presence of the compound to be tested.
(§3) The compound of the invention used in the assay was 2-acetyloxybenzoic acid 6-(nitroxymethyl)-2-pyridinylmethyl ester hydrochloride (NCX 4050), which synthesis is described in preceding example 1.
(§4) The reference compound was 2-acetoxybenzoic acid (3-nitroxymethyl)phenyl ester of formula [drawing 34]

[2] = tested on: human vascular smooth cell proliferation; test: Inhibition of smooth muscle cell proliferation (3H-thymidine); type: cell-based; details: 10% FCS
Procedure: Human saphenous veins were cultured by standard explant methods (J. Cardiovasc., Pharmacol. 1999, 33(2), 204-11). Tissues were collected into sterile pots containing PBS, penicillin and streptomycin. Under sterile tissue culture conditions, tissues were cut into small pieces (approximately 1 mg weight) and placed into a standard culture medium containing 20% fetal calf serum (FCS) for several days (medium changed every 2-4 days). ^3H-thymidine was measured in the DNA fraction of cells cultured into 48 well plates. Cells were cultured to confluence in the medium containing 10% FCS. Cells were deprived of serum for 24 h before the addition of 10% FCS, together with different concentration of steroids. After 24 h, ^3H-thymidine was added to the cells for 4 h. Cells were washed with phosphate buffered saline and ethanol. DNA was extracted with sodium hydroxide solution and the ^3H material counted by scintillation. The data represents observations made in triplicate wells.
Table 2 reports results obtained on the inhibitory effect of the tested compounds on human vascular smooth cell proliferation.

[3] = tested on: rabbit aorta smooth muscle; test: Inhibition of smooth muscle contraction, rabbit aorta in organ bath; parameters: species or system New Zealand White Rabbits; details: Oryctolagus cuniculus, pre-contracted with phenylephrine (10 μM)
Procedure: as §1, §2, §3, §4

[4] = concentration (log M) −4, human saphenous vein cells
[5] = concentration (log M) −5, human saphenous vein cells

Compound	inhibition at 10 µM ([1]; read-out: % inhibition rabbit corpus cav, concentration (log M) −4)	inhibition at 10 µM ([1]; read-out: % inhibition rabbit corpus cav, concentration (log M) −5)	% inhibition cell proliferation [2, 4]	% inhibition cell proliferation [2, 5]	inhibition at 10 µM ([3]; read-out: % inhibition rabbit aorta, concentration (log M) −5)	inhibition at 10 µM ([1]; concentration (log M) −5, read-out: % inhibition rabbit corpus cav)	inhibition at 100 µM ([3]; concentration (log M) −4)	inhibition at 10 µM ([3]; concentration (log M) −5, read-out: % inhibition rabbit aorta)
CC(=O)Oc1ccccc1C(=O)OCc1cccc(CO[N+](=O)[O-])n1.Cl [NCX 4050, 2-Acetyloxybenzoic Acid 6-(Nitroxymethyl)-2-pyridinylmethyl Ester Chlorhydrate]	85%	63%	95%	82%	80%			
CC(=O)Oc1ccccc1C(=O)Oc1cccc(CO[N+](=O)[O-])c1 [NCX 4016, 2-acetoxybenzoic acid (3-nitroxymethyl)phenyl ester]			60%	43%		14%	20%	18%
